The test system of one data set is human norovirus replicon. Also noted: method as in PMID 26392512. The note with it: cell culture; read-out: EC50 against the human norovirus replicon; cited from earlier work.
The test system of another data set is human norovirus. Also noted: method as in PMID 27210811. Particulars: read-out: EC50 against human norovirus in the B-cell culture system; cited from earlier work.
The next data set has as its system human norovirus RdRp. Particulars: cited from earlier work.
The test system of data set [1] is norovirus RdRp. The data set is described as follows: Counter-screen gel-shift RdRp assay (primed elongation of PE44-NoV template). It is filed as biochemical, human norovirus. Particulars: 10 µM. (The purpose of a counterscreen is to sort out artefacts and off-target activity.)
Data set [2] has as its target human norovirus Sydney 2012 RdRp (Norovirus GII.4 (Norwalk virus, human norovirus), UniProt K4L8Z7). The data set is described as follows: Fluorescent de novo RdRp activity assay (PicoGreen, poly(C) template). It is filed as biochemical. As to the method: The 62 compounds identified in silico were screened for inhibition of norovirus RdRp activity using an in vitro fluorescent, de novo RdRp assay. Compounds were tested at fixed concentrations of 10 µM and 100 µM, and compared to mock treated samples containing the vehicle only (0.5% DMSO [vol/vol]) (Fig. 4A,B). […] For certain compounds, significant insolubility was observed, coupled with either inherent fluorescence quenching (positive y-axis values on Fig. 4A,B) or enhancement of the fluorescence signal (negative y-axis values).
The newly synthesised compounds, including the re-prepared hit 13 and some synthesis intermediates (Table 1), were initially evaluated on norovirus Sydney 2012 RdRp activity in vitro using a quantitative fluorescent assay. Compounds were tested at a fixed concentration of 10 μM and compared to the relative activity of mock treated samples.
Recombinant calicivirus RdRps (GenBank accession numbers) norovirus GII.Pe/GII.4 Sydney 2012 (KT239579), MNV GV CW1 (DQ285629), RHDV Czech V351 (KF594473.1), and SaV GI.1 Mc114 (AY237422) were expressed and purified as described previously[60],[61]. RdRp resistance mutants were generated using the QuikChange site-directed mutagenesis kit (Agilent Technologies, Santa Clara, CA, USA) and confirmed by Sanger sequencing.
(§1) Fluorescent RdRp activity assays were carried out as previously described[14],[62]. Briefly, RdRp activity was quantified by monitoring the formation of double-stranded RNA (dsRNA) from a single stranded homopolymeric template, poly(C) (Sigma Aldrich, St Louis, MO, USA), using the fluorescent dye PicoGreen (Life Technologies, Carlsbad, CA, USA). RdRp assays were performed in 384-well plates, and each reaction mixture contained 400 ng enzyme, 45 µM GTP, 10 ng/µL poly(C) RNA, 2.5 mM MnCl2, 5 mM dithiothreitol, (DTT), 0.01% bovine serum albumin (BSA), and 0.005% Tween 20 in 20 mM Tris-HCl, pH 7.5, with a final reaction volume of 25 µL. The previous published norovirus NNI NIC02 was used as a positive control. RdRps were incubated for 10 mins at 30 °C in the presence of the test compounds or the compound vehicle DMSO (0.5% vol/vol) before addition into the reaction mixture, which was then allowed to run 15 min at 30 °C then terminated with 10 mM EDTA, followed by PicoGreen staining and dsRNA quantitation. GraphPad Prism V6.05 (La Jolla, CA, USA) was used to plot the IC50 values. In cases where fluorescent enhancement was recorded for a compound instead of inhibition, a secondary gel-based polymerase activity assay was used as a counter-screen as described below, to exclude the possibility of RdRp activity enhancement (Supplementary Fig. S1). Primed elongation activity was examined in a gel-based assay as previously described[16],[63] using the RNA template (PE44-NoV, Fig. 4D). Gels were imaged using BioRad (Hercules, CA, U.SA) Geldoc Universal Hood II, running BioRad Image Lab software, V4.1, build 16. Antagonism was calculated using Compusyn software V1.0[59]. 54 and PPNDS (4:1 ratio) were tested alone and together against norovirus Sydney 2012 RdRp.

Data set [3] deals with norovirus RdRp. The data set is described as follows: Counter-screen gel-shift RdRp assay (primed elongation of PE44-NoV template). The class given is biochemical, human norovirus. The note with it: fixed concentration of 100 µM. As to the method:
In this assay, a 32 nucleotide RNA template (PE44-NoV) is extended to 44 nucleotides in the presence of an active RdRp[16]. […] Inhibition of primed elongation of the PE44-NoV template was examined at a fixed concentration of 100 µM (Fig. 4D). In the absence of inhibition (0.5% DMSO vehicle only) the RNA template was extended to 44 nucleotides (Fig. 4D), evidenced by an upward gel shift and the appearance of the second, higher band.
as §1

For the next data set, the target named is T1, MNV RdRp (Norovirus, UniProt Q80J95).
T1 construct: made in house
The data set is described as follows: Fluorescent RdRp activity assay, MNV RdRp. The class given is biochemical, murine norovirus. Particulars: fixed concentration of 100 µM. From the text: The antiviral activity of the four compounds (11, 13, 42a and 54) were examined for inhibition of RNA polymerases from other viruses spanning three genera of the Caliciviridae family, including Norovirus (human norovirus and MNV), Lagovirus (rabbit haemorrhagic disease virus [RHDV]) and Sapovirus (human sapovirus). […] The protein sequence of the examined calicivirus polymerases has an identity range between 30.2–61.4%, and therefore the broad-spectrum activity of these compounds could be attributed to a common, highly-conserved binding pocket across the RdRps, as has been previously reported with broad-spectrum activity of other site-B binding NNIs[16]. Moreover, the ability of each compound to inhibit the different RdRps in a similar range could be further confirmation of targeting a well-conserved binding site of the Caliciviridae family.
Recombinant calicivirus RdRps (GenBank accession numbers) norovirus GII.Pe/GII.4 Sydney 2012 (KT239579), MNV GV CW1 (DQ285629), RHDV Czech V351 (KF594473.1), and SaV GI.1 Mc114 (AY237422) were expressed and purified as described previously[60],[61]. […]
Fluorescent RdRp activity assays were carried out as previously described[14],[62]. Briefly, RdRp activity was quantified by monitoring the formation of double-stranded RNA (dsRNA) from a single stranded homopolymeric template, poly(C) (Sigma Aldrich, St Louis, MO, USA), using the fluorescent dye PicoGreen (Life Technologies, Carlsbad, CA, USA). […] RdRps were incubated for 10 mins at 30 °C in the presence of the test compounds or the compound vehicle DMSO (0.5% vol/vol) before addition into the reaction mixture, which was then allowed to run 15 min at 30 °C then terminated with 10 mM EDTA, followed by PicoGreen staining and dsRNA quantitation. […] In cases where fluorescent enhancement was recorded for a compound instead of inhibition, a secondary gel-based polymerase activity assay was used as a counter-screen as described below, to exclude the possibility of RdRp activity enhancement (Supplementary Fig. S1). […] Antagonism was calculated using Compusyn software V1.0[59]. […]

Details of data set [4]: method as in PMID 24316032, PMID 24616282. Particulars: cited from earlier work.

The values that follow come from PMC5841303, “In silico screening for human norovirus antivirals reveals a novel non-nucleoside inhibitor of the viral polymerase” (Scientific Reports, 2018).

SMILES strings stand for the structures. Structures can show the parent of a compound that is named as a salt. Where two headings read alike, the source gives them in different places. A value given as a limit tells only on which side of the number the result lay.

By EC50 is commonly meant the concentration that produces a half-maximal response. By IC50 is commonly meant the concentration at which inhibition is half-maximal. Turning to `C[C@@]1(O)[C@H](O)[C@@H](CO)O[C@H]1n1ccc(N)nc1=O` [Compound 2CMC, 2′-C-methylcytidine], the EC50 in the data set with human norovirus replicon was 8200 nM; in the data set on human norovirus, 300 nM. Also, the half-maximal inhibitory concentration (IC50) with human norovirus RdRp (read-out: IC50 against human norovirus RdRp) was 2500 nM.
`Nc1nc2c(ncn2[C@@H]2O[C@H](COP(=O)(O)OP(=O)(O)OP(=O)(O)O)C[C@H]2O)c(=O)[nH]1` [3′dGTP, 3′-deoxyguanosine-5′-triphosphate]: the “inhibition of transcription (gel-shift, positive control)” value in the data set with norovirus RdRp [1] is reported as “complete inhibition”.
What is called inhibition is how much of the control response was suppressed. For the molecule `O=C(CN1C(=O)S/C(=C\c2ccc(-c3ccccc3)o2)C1=O)Nc1ccccc1` [Compound 42a], the IC50 in data set [2] came out at 27400 nM. In the data set on norovirus RdRp [3], the “inhibition of primed elongation activity (gel-shift)” value is on record as “near complete abolishment of norovirus RdRp activity”. On MNV RdRp, this molecule displayed an inhibition at 100 µM of 44.4%. Moreover, on MNV RdRp (100 µM), the “inhibition of MNV RdRp activity” value was less than 50%.
`Cc1ccc(C(=O)Nc2ccc(S(=O)(=O)O)c3cc(S(=O)(=O)O)cc(S(=O)(=O)O)c23)cc1NC(=O)c1cccc(NC(=O)Nc2cccc(C(=O)Nc3cc(C(=O)Nc4ccc(S(=O)(=O)O)c5cc(S(=O)(=O)O)cc(S(=O)(=O)O)c45)ccc3C)c2)c1` [suramin]: the IC50 in the data set on human norovirus RdRp (enzymatic assays, read-out: IC50 against human norovirus RdRp) is 27 nM. Also, the cell membrane permeability entry in data set [4] was “poor cell membrane permeability”.
Regarding `CC1=N/C(=N/Nc2cc(S(=O)(=O)O)c3cc([N+](=O)[O-])cc(S(=O)(=O)O)c3c2)C(COP(=O)(O)O)=C(C=O)C1=O` [PPNDS, pyridoxal-5′-phosphate-6-(2′-naphthylazo-6′-nitro-4′,8′-disulfonate) tetrasodium salt], in the data set with human norovirus RdRp (in vitro, read-out: IC50 against human norovirus RdRp activity), the half-maximal inhibitory concentration (IC50) is 450 nM. Moreover, in data set [4], the cell membrane permeability entry was “poor cell membrane permeability”.
